Experimental findings from publication PMC9171197, “The Impact of Chromate on Pseudomonas aeruginosa Molybdenum Homeostasis” (Frontiers in Microbiology, 2022) are described below.

In the experiment the target is T1, P. aeruginosa PAO1 ModA (Pseudomonas aeruginosa, UniProt Q9I2N2).
T1 construct: N-terminal His6 tag (pMCSG7) cleaved by TEV protease; E. coli BL21-Gold (DE3); metal-free
Nature of the experiment: isothermal titration calorimetry. Format: binding. The text has this: isothermal titration calorimetry on P. aeruginosa PAO1 ModA

Each structure is given as a SMILES string. Like-named read-outs stand apart in the source and are kept apart here.

T1 sequence (Q9I2N2 23-251): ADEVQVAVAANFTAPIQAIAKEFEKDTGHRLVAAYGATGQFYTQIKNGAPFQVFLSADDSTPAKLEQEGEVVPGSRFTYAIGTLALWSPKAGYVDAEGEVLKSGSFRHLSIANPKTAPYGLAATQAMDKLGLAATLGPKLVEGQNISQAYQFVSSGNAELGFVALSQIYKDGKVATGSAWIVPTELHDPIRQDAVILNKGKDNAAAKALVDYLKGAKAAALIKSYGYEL

For the compound `[O]=[Cr](=[O])([OH])[OH]` [CrO, chromate], the Kd (read-out: CrO-ModA) stood at 927 ± 87.7 nM.

With `[O]=[Mo](=[O])([OH])[OH]` [MoO, molybdate], the Kd (read-out: MoO-ModA) worked out at 1 ± 1.3 nM.

As for `[O]=[W](=[O])([OH])[OH]` [WO, tungstate], the Kd (read-out: WO-ModA) is 1.2 ± 2 nM.
